Experimental findings from ChEMBL document CHEMBL1127908, “A congener study of zileuton reveals interesting effects on glucuronidation rates” (Bioorg Med Chem Lett, 1994) are described below.

The species named for assay [1] is Homo sapiens. Nature of the assay: Concentration required for the inhibition of LTB4 production in human whole blood. Format: functional, organism-based.
The species entered for assay [2] is Homo sapiens. Nature of the assay: Tested for its rate of glucuronidation in 0.5-2.5 mg/mL of human microsomal protein; Not detected. It counts as functional.
The species entered for assay [3] is Homo sapiens. The experiment in a line: Tested for its rate of glucuronidation in 0.5-2.5 mg/mL of human microsomal protein. Format: functional.
The species entered for assay [4] is Homo sapiens. Nature of the assay: Tested for its rate of glucuronidation in 0.5-2.5 mg/mL of human microsomal protein; not detected. It counts as functional.

Structures are written as SMILES.

In general, IC50 refers to the concentration that gives 50% inhibition. A high value points to a need for much substance. For `CC(c1cc2cccnc2s1)N(O)C(N)=O` (stereo in doubt; (+)-2b) [listing 1 of 2 here], in assay [1], the midpoint of inhibition, the IC50, lay at 0.95 µM. Regarding `CC(c1cc2cccnc2o1)N(O)C(N)=O` (single isomer, unassigned; (-)) [listing 1 of 2 here], the Glucuronidation rate result in assay [2] was “Not detected”. With `CC(c1cc2ccncc2s1)N(O)C(N)=O` (single isomer, unassigned; (+)) [listing 1 of 2 here], in assay [3], the Glucuronidation rate (nM min-1 mg-1) came out at 0.053.

Turning to `CC(c1cc2ccccc2s1)N(O)C(N)=O` (single isomer, unassigned; (-)) [ZILEUTON], in assay [1], the midpoint of inhibition, the IC50, lay at 1.88 µM.

Consider `CC(c1cc2cccnc2o1)N(O)C(N)=O` (stereo in doubt; (+)-5b) [listing 1 of 2 here], for which the Glucuronidation rate entry in assay [4] is “Not detected”. Compound `CC(c1cc2cccnc2s1)N(O)C(N)=O` (single isomer, unassigned; (-)) [listing 1 of 2 here] showed an IC50 in assay [1] of 3.7 µM.

In assay [1], `CC(c1cc2ncccc2s1)N(O)C(N)=O` (stereo in doubt; (-)-4a) [listing 1 of 2 here] showed an IC50 of 6.62 µM. Still for that read-out and setting: to `CC(c1cc2cccnc2o1)N(O)C(N)=O` (single isomer, unassigned; (-)) [listing 2 of 2 here] belongs 11.3 µM. Regarding `CC(c1cc2ccncc2s1)N(O)C(N)=O` (stereo in doubt; (-)-3a) [listing 1 of 2 here], the Glucuronidation rate (nM min-1 mg-1) in assay [3] was 0.241.

Turning to `CC(c1cc2cccnc2s1)N(O)C(N)=O` (single isomer, unassigned; (-)) [listing 2 of 2 here], in assay [3], the Glucuronidation rate (nM min-1 mg-1) was 0.058. Turning to `CC(c1cc2ncccc2s1)N(O)C(N)=O` (single isomer, unassigned; (+)) [listing 1 of 2 here], the IC50 in assay [1] amounted to 3.12 µM. In assay [3], `CC(c1cc2ccccc2s1)N(O)C(N)=O` (stereo in doubt; (+)-1b) had a Glucuronidation rate (nM min-1 mg-1) of 0.025. The compound `CC(c1cc2ccncc2s1)N(O)C(N)=O` (stereo in doubt; (-)-3a) [listing 2 of 2 here] gave an IC50 in assay [1] (Homo sapiens, Blood) of 2 µM. `CC(c1cc2ccccc2s1)N(O)C(N)=O` (single isomer, unassigned; (-)): the Glucuronidation rate (nM min-1 mg-1) in assay [3] turned out to be 0.155. Regarding `CC(c1cc2cccnc2o1)N(O)C(N)=O` (stereo in doubt; (+)-5b) [listing 2 of 2 here], half-maximal inhibition in assay [1] (IC50) required 2.78 µM.

For `CC(c1cc2cccnc2s1)N(O)C(N)=O` (stereo in doubt; (+)-2b) [listing 2 of 2 here], the Glucuronidation rate (nM min-1 mg-1) in assay [3] worked out at 0.012. Consider `CC(c1cc2ncccc2s1)N(O)C(N)=O` (single isomer, unassigned; (+)) [listing 2 of 2 here], for which the Glucuronidation rate (nM min-1 mg-1) in assay [3] stood at 0.006. The compound `CC(c1cc2ccccc2s1)N(O)C(N)=O` (stereo in doubt; (+)-1b) [ZILEUTON] gave an IC50 in assay [1] of 0.64 µM.

Compound `CC(c1cc2ccncc2s1)N(O)C(N)=O` (single isomer, unassigned; (+)) [listing 2 of 2 here] yielded an IC50 in assay [1] of 1.5 µM. In assay [3], `CC(c1cc2ncccc2s1)N(O)C(N)=O` (stereo in doubt; (-)-4a) [listing 2 of 2 here] displayed a Glucuronidation rate (nM min-1 mg-1) of 0.037.
